# Tested on: HOP-92
# Assay: Cytotoxicity against human HOP92 cells assessed as effect on cell growth at 10 uM incubated for 48 hrs by sulforhodamine B assay
# Format: cell-based
# Details: hop-92, 48 h
row,SMILES,Activity
1,O=C(NCc1ccc(Cl)cc1Cl)[C@@H]1CCC(=O)N1c1cscn1,Non-Toxic
2,COc1ccc(NC(=O)[C@@H]2CCC(=O)N2)cc1OC,Non-Toxic
3,O=C1N[C@H](C(=O)NCc2ccc(Cl)cc2Cl)C/C1=C\N1CCOCC1,Non-Toxic

# Tested on: NCI-H23
# Assay: Cytotoxicity against human NCI-H23 cells assessed as effect on cell growth at 10 uM incubated for 48 hrs by sulforhodamine B assay
# Format: cell-based
# Details: nci-h23, 48 h
row,SMILES,Activity
1,O=C(NCc1ccc(Cl)cc1Cl)[C@@H]1CCC(=O)N1c1cscn1,Non-Toxic
2,COc1ccc(NC(=O)[C@@H]2CCC(=O)N2)cc1OC,Non-Toxic
3,O=C1N[C@H](C(=O)NCc2ccc(Cl)cc2Cl)C/C1=C\N1CCOCC1,Non-Toxic

# Tested on: NCI-H322M
# Assay: Cytotoxicity against human NCI-H322M cells assessed as effect on cell growth at 10 uM incubated for 48 hrs by sulforhodamine B assay
# Format: cell-based
# Details: not given
row,SMILES,Activity
1,O=C(NCc1ccc(Cl)cc1Cl)[C@@H]1CCC(=O)N1c1cscn1,Non-Toxic
2,COc1ccc(NC(=O)[C@@H]2CCC(=O)N2)cc1OC,Non-Toxic
3,O=C1N[C@H](C(=O)NCc2ccc(Cl)cc2Cl)C/C1=C\N1CCOCC1,Non-Toxic

# Tested on: NCI-H522
# Assay: Cytotoxicity against human NCI-H522 cells assessed as effect on cell growth at 10 uM incubated for 48 hrs by sulforhodamine B assay
# Format: cell-based
# Details: nci-h522, 48 h
row,SMILES,Activity
1,O=C(NCc1ccc(Cl)cc1Cl)[C@@H]1CCC(=O)N1c1cscn1,Non-Toxic
2,COc1ccc(NC(=O)[C@@H]2CCC(=O)N2)cc1OC,Non-Toxic
3,O=C1N[C@H](C(=O)NCc2ccc(Cl)cc2Cl)C/C1=C\N1CCOCC1,Non-Toxic

# Tested on: COLO 205
# Assay: Cytotoxicity against human COLO205 cells assessed as effect on cell growth at 10 uM incubated for 48 hrs by sulforhodamine B assay
# Format: cell-based
# Details: colo 205, 48 h
row,SMILES,Activity
1,O=C(NCc1ccc(Cl)cc1Cl)[C@@H]1CCC(=O)N1c1cscn1,Non-Toxic
2,COc1ccc(NC(=O)[C@@H]2CCC(=O)N2)cc1OC,Non-Toxic
3,O=C1N[C@H](C(=O)NCc2ccc(Cl)cc2Cl)C/C1=C\N1CCOCC1,Non-Toxic

# Tested on: HCC 2998
# Assay: Cytotoxicity against human HCC2998 cells assessed as effect on cell growth at 10 uM incubated for 48 hrs by sulforhodamine B assay
# Format: cell-based
# Details: hcc 2998, 48 h
row,SMILES,Activity
1,O=C(NCc1ccc(Cl)cc1Cl)[C@@H]1CCC(=O)N1c1cscn1,Non-Toxic
2,COc1ccc(NC(=O)[C@@H]2CCC(=O)N2)cc1OC,Non-Toxic
3,O=C1N[C@H](C(=O)NCc2ccc(Cl)cc2Cl)C/C1=C\N1CCOCC1,Non-Toxic

# Tested on: HCT-116
# Assay: Cytotoxicity against human HCT116 cells assessed as effect on cell growth at 10 uM incubated for 48 hrs by sulforhodamine B assay
# Format: cell-based
# Details: hct-116, 48 h
row,SMILES,Activity
1,O=C(NCc1ccc(Cl)cc1Cl)[C@@H]1CCC(=O)N1c1cscn1,Non-Toxic
2,COc1ccc(NC(=O)[C@@H]2CCC(=O)N2)cc1OC,Non-Toxic
3,O=C1N[C@H](C(=O)NCc2ccc(Cl)cc2Cl)C/C1=C\N1CCOCC1,Non-Toxic

# Tested on: HT-29
# Assay: Cytotoxicity against human HT-29 cells assessed as effect on cell growth at 10 uM incubated for 48 hrs by sulforhodamine B assay
# Format: cell-based
# Details: ht-29, 48 h
row,SMILES,Activity
1,O=C(NCc1ccc(Cl)cc1Cl)[C@@H]1CCC(=O)N1c1cscn1,Non-Toxic
2,COc1ccc(NC(=O)[C@@H]2CCC(=O)N2)cc1OC,Non-Toxic
3,O=C1N[C@H](C(=O)NCc2ccc(Cl)cc2Cl)C/C1=C\N1CCOCC1,Non-Toxic

# Tested on: SNB-19
# Assay: Cytotoxicity against human SNB19 cells assessed as effect on cell growth at 10 uM incubated for 48 hrs by sulforhodamine B assay
# Format: cell-based
# Details: snb-19, 48 h
row,SMILES,Activity
1,O=C(NCc1ccc(Cl)cc1Cl)[C@@H]1CCC(=O)N1c1cscn1,Non-Toxic
2,COc1ccc(NC(=O)[C@@H]2CCC(=O)N2)cc1OC,Non-Toxic
3,O=C1N[C@H](C(=O)NCc2ccc(Cl)cc2Cl)C/C1=C\N1CCOCC1,Non-Toxic

# Tested on: SNB-75
# Assay: Cytotoxicity against human SNB75 cells assessed as effect on cell growth at 10 uM incubated for 48 hrs by sulforhodamine B assay
# Format: cell-based
# Details: snb-75, 48 h
row,SMILES,Activity
1,O=C(NCc1ccc(Cl)cc1Cl)[C@@H]1CCC(=O)N1c1cscn1,Non-Toxic
2,COc1ccc(NC(=O)[C@@H]2CCC(=O)N2)cc1OC,Non-Toxic
3,O=C1N[C@H](C(=O)NCc2ccc(Cl)cc2Cl)C/C1=C\N1CCOCC1,Non-Toxic

# Tested on: U-251
# Assay: Cytotoxicity against human U251 cells assessed as effect on cell growth at 10 uM incubated for 48 hrs by sulforhodamine B assay
# Format: cell-based
# Details: u-251, 48 h
row,SMILES,Activity
1,O=C(NCc1ccc(Cl)cc1Cl)[C@@H]1CCC(=O)N1c1cscn1,Non-Toxic
2,COc1ccc(NC(=O)[C@@H]2CCC(=O)N2)cc1OC,Non-Toxic
3,O=C1N[C@H](C(=O)NCc2ccc(Cl)cc2Cl)C/C1=C\N1CCOCC1,Non-Toxic

# Tested on: Malme-3M
# Assay: Cytotoxicity against human MALME-3M cells assessed as effect on cell growth at 10 uM incubated for 48 hrs by sulforhodamine B assay
# Format: cell-based
# Details: not given
row,SMILES,Activity
1,O=C(NCc1ccc(Cl)cc1Cl)[C@@H]1CCC(=O)N1c1cscn1,Non-Toxic
2,COc1ccc(NC(=O)[C@@H]2CCC(=O)N2)cc1OC,Non-Toxic
3,O=C1N[C@H](C(=O)NCc2ccc(Cl)cc2Cl)C/C1=C\N1CCOCC1,Non-Toxic

# Tested on: UACC-62
# Assay: Cytotoxicity against human UACC62 cells assessed as effect on cell growth at 10 uM incubated for 48 hrs by sulforhodamine B assay
# Format: cell-based
# Details: uacc-62, 48 h
row,SMILES,Activity
1,O=C(NCc1ccc(Cl)cc1Cl)[C@@H]1CCC(=O)N1c1cscn1,Non-Toxic
2,COc1ccc(NC(=O)[C@@H]2CCC(=O)N2)cc1OC,Non-Toxic
3,O=C1N[C@H](C(=O)NCc2ccc(Cl)cc2Cl)C/C1=C\N1CCOCC1,Non-Toxic

# Tested on: IGROV-1
# Assay: Cytotoxicity against human IGROV1 cells assessed as effect on cell growth at 10 uM incubated for 48 hrs by sulforhodamine B assay
# Format: cell-based
# Details: igrov-1, 48 h
row,SMILES,Activity
1,O=C(NCc1ccc(Cl)cc1Cl)[C@@H]1CCC(=O)N1c1cscn1,Non-Toxic
2,COc1ccc(NC(=O)[C@@H]2CCC(=O)N2)cc1OC,Non-Toxic
3,O=C1N[C@H](C(=O)NCc2ccc(Cl)cc2Cl)C/C1=C\N1CCOCC1,Non-Toxic

# Tested on: OVCAR-8
# Assay: Cytotoxicity against human OVCAR8 cells assessed as effect on cell growth at 10 uM incubated for 48 hrs by sulforhodamine B assay
# Format: cell-based
# Details: ovcar-8, 48 h
row,SMILES,Activity
1,O=C(NCc1ccc(Cl)cc1Cl)[C@@H]1CCC(=O)N1c1cscn1,Non-Toxic
2,COc1ccc(NC(=O)[C@@H]2CCC(=O)N2)cc1OC,Non-Toxic
3,O=C1N[C@H](C(=O)NCc2ccc(Cl)cc2Cl)C/C1=C\N1CCOCC1,Non-Toxic

# Tested on: NCI/ADR-RES
# Assay: Cytotoxicity against human NCI/ADR-RES cells assessed as effect on cell growth at 10 uM incubated for 48 hrs by sulforhodamine B assay
# Format: cell-based
# Details: not given
row,SMILES,Activity
1,O=C(NCc1ccc(Cl)cc1Cl)[C@@H]1CCC(=O)N1c1cscn1,Non-Toxic
2,COc1ccc(NC(=O)[C@@H]2CCC(=O)N2)cc1OC,Non-Toxic
3,O=C1N[C@H](C(=O)NCc2ccc(Cl)cc2Cl)C/C1=C\N1CCOCC1,Non-Toxic

# Tested on: TK-10
# Assay: Cytotoxicity against human TK10 cells assessed as effect on cell growth at 10 uM incubated for 48 hrs by sulforhodamine B assay
# Format: cell-based
# Details: tk-10, 48 h
row,SMILES,Activity
1,O=C(NCc1ccc(Cl)cc1Cl)[C@@H]1CCC(=O)N1c1cscn1,Non-Toxic
2,COc1ccc(NC(=O)[C@@H]2CCC(=O)N2)cc1OC,Non-Toxic
3,O=C1N[C@H](C(=O)NCc2ccc(Cl)cc2Cl)C/C1=C\N1CCOCC1,Non-Toxic

# Tested on: PC-3
# Assay: Cytotoxicity against human PC3 cells assessed as effect on cell growth at 10 uM incubated for 48 hrs by sulforhodamine B assay
# Format: cell-based
# Details: pc-3, 48 h
row,SMILES,Activity
1,O=C(NCc1ccc(Cl)cc1Cl)[C@@H]1CCC(=O)N1c1cscn1,Non-Toxic
2,COc1ccc(NC(=O)[C@@H]2CCC(=O)N2)cc1OC,Non-Toxic
3,O=C1N[C@H](C(=O)NCc2ccc(Cl)cc2Cl)C/C1=C\N1CCOCC1,Non-Toxic

# Tested on: T47D
# Assay: Cytotoxicity against human T47D cells assessed as effect on cell growth at 10 uM incubated for 48 hrs by sulforhodamine B assay
# Format: cell-based
# Details: not given
row,SMILES,Activity
1,O=C(NCc1ccc(Cl)cc1Cl)[C@@H]1CCC(=O)N1c1cscn1,Non-Toxic
2,COc1ccc(NC(=O)[C@@H]2CCC(=O)N2)cc1OC,Non-Toxic
3,O=C1N[C@H](C(=O)NCc2ccc(Cl)cc2Cl)C/C1=C\N1CCOCC1,Non-Toxic

# Tested on: MDA-MB-468
# Assay: Cytotoxicity against human MDA-MB-468 cells assessed as effect on cell growth at 10 uM incubated for 48 hrs by sulforhodamine B assay
# Format: cell-based
# Details: mda-mb-468, 48 h
row,SMILES,Activity
1,O=C(NCc1ccc(Cl)cc1Cl)[C@@H]1CCC(=O)N1c1cscn1,Non-Toxic
2,COc1ccc(NC(=O)[C@@H]2CCC(=O)N2)cc1OC,Non-Toxic
3,O=C1N[C@H](C(=O)NCc2ccc(Cl)cc2Cl)C/C1=C\N1CCOCC1,Non-Toxic

# Reference: ChEMBL document CHEMBL4627246, “Pyroglutamide-Based P2X7 Receptor Antagonists Targeting Inflammatory Bowel Disease” (J Med Chem, 2020)
